Usually IC50 stands for the concentration needed to halve the response being measured. Low values mean greater potency in that assay, high ones weaker potency in that assay.

One test deals with T1, Lanosterol synthase (Homo sapiens, UniProt P48449).
T1 sequence (P48449 whole entry): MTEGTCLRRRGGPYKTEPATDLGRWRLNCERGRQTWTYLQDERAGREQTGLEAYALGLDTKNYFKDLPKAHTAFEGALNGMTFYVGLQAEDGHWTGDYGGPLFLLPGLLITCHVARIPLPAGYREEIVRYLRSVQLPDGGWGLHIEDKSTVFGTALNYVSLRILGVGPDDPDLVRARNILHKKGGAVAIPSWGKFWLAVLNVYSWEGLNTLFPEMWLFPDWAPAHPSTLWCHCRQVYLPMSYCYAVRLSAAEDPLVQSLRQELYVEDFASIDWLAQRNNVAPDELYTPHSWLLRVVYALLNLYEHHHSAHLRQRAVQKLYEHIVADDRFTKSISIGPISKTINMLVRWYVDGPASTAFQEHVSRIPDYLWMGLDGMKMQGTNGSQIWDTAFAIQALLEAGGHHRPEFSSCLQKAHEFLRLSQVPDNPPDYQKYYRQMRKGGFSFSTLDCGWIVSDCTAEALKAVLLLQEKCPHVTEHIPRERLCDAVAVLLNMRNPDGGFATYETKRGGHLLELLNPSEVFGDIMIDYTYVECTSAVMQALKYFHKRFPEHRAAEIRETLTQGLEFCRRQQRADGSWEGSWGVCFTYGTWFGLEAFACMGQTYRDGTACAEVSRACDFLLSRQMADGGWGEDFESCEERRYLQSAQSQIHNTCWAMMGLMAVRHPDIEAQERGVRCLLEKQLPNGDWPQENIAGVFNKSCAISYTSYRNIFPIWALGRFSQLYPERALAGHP
The test can be described thus: Inhibitory activity against Oxidosqualene-lanosterol cyclase from human liver microsomes. In general terms: Liver microsomes are vesicles of endoplasmic reticulum, rich in cytochrome P450 enzymes.
`C=CCN(C)CCCCCCOc1ccc2c(-c3ccc(Br)cc3)n[nH]c2c1` registered an IC50 of 39 nM. The same measure, in the same setting: the figure for `CN(C(=O)Oc1ccc(Cl)cc1)[C@H]1CC[C@H](c2ccc(CN3CCCCC3)cc2)CC1` is 11.3 nM.

Consider `C=CCN(C)C/C=C/COc1ccc2c(-c3ccc(Br)cc3)noc2c1`, for which half-maximal inhibition (IC50) required 29 nM.

For the compound `C=CCN(C)C/C=C/COc1ccc(C(=O)c2ccc(Br)cc2)cc1`, the IC50 worked out at 3 nM.

The compound `C=CCN(C)CCCCCCOc1ccc2c(-c3ccc(Br)cc3)nccc2c1` yielded an IC50 of 3.5 nM. Take `CN(C(=O)Oc1ccc(Cl)cc1)[C@H]1CC[C@H](c2ccc(C[N+]3([O-])CCCCC3)cc2)CC1`: it took 640 nM to reach half-maximal inhibition (IC50). Still for that read-out and setting: the figure for `C=CCN(C)CCCCCCOc1ccc2c(-c3ccc(Br)cc3)nn(C)c2c1` is 19.6 nM; for `O=C(c1ccc(Cl)cc1)N1CCC(=Cc2ccc(C3=NCCO3)cc2)CC1` it is 36 nM. On the same count and under the same terms, the figure for `CN(CCCCCCOC1CCN(C(=O)c2ccc(F)cc2)CC1)C1CC1` is 48 nM. Same read-out and setting: as for `C=CCN(C)C/C=C/COc1ccc(-c2nsc3cc(Br)ccc23)cc1`, the figure is 1860 nM.

Regarding `C=CCN(C)C/C=C/COc1ccc2c(-c3ccc(Br)cc3)coc2c1`, the IC50 turned out to be 500 nM. Same read-out and setting: as for `C=CCN(C)C/C=C/COc1ccc2c(-c3ccc(Br)cc3)csc2c1`, the figure is 13.5 nM; as for `C=CCN(C)CCCCCCOc1ccc2c(-c3ccc(Br)cc3)noc2c1`, 380 nM; as for `C=CCN(C)CCCCCCOc1ccc2c(C)nn(C)c2c1`, 240 nM. On the same count and under the same terms, the figure for `C=CCN(C)CCCCCCOc1ccc2c(c1)CON=C2c1ccc(Br)cc1` is 4.1 nM; for `C=CCN(C)CCCCCCOc1ccc2c(-c3ccc(Br)cc3)nsc2c1` it is 2.9 nM. Still for that read-out and setting: the figure for `C=CCN(C)Cc1ccc(-c2ccc(C(=O)c3ccc(Br)cc3)cc2)cc1` is 16 nM. As to `C=CCN(C)CCCCCCOc1ccc2c(-c3ccc(Br)cc3)coc2c1`, the 50% inhibitory concentration (IC50) worked out at 610 nM.

Take `C=CCN(C)CCCCCCOc1ccc(C(=O)c2ccc(Br)cc2)cc1`: the IC50 stood at 5.4 nM.

Take `C=CCN(C[C@H]1C[C@@H]1COc1ccc(C(=O)c2ccc(Br)cc2)cc1)C1CC1`: half-maximal inhibition (IC50) was put at 223 nM. `CN(CCCCCCOc1ccc(C(=O)c2ccc(Br)cc2)c(F)c1)C1CC1`: it took 98 nM to reach half-maximal inhibition (IC50). On the same count and under the same terms, the figure for `CN(C[C@H]1C[C@@H]1COc1ccc(C(=O)c2ccc(Br)cc2)c(F)c1)C1CC1` is 439 nM. Still for that read-out and setting: the figure for `C=CCN(C)CCCCCCOc1ccc(-c2nsc3cc(Br)ccc23)cc1` is 1900 nM. The same measure, in the same setting: the figure for `C=CCN(C)CCCCCCOC1CCN(C(=O)c2ccc(F)cc2)CC1` is 71 nM; for `CN(C[C@H]1C[C@@H]1COc1ccc(C(=O)c2ccc(Br)cc2)cc1)C1CC1` it is 22 nM.

The next test concerns the target T2, Squalene--hopene cyclase (Alicyclobacillus acidocaldarius subsp. acidocaldarius (strain ATCC27009 / DSM 446 / 104-1A) (Bacillus acidocaldarius), UniProt P33247).
T2 sequence (P33247 whole entry): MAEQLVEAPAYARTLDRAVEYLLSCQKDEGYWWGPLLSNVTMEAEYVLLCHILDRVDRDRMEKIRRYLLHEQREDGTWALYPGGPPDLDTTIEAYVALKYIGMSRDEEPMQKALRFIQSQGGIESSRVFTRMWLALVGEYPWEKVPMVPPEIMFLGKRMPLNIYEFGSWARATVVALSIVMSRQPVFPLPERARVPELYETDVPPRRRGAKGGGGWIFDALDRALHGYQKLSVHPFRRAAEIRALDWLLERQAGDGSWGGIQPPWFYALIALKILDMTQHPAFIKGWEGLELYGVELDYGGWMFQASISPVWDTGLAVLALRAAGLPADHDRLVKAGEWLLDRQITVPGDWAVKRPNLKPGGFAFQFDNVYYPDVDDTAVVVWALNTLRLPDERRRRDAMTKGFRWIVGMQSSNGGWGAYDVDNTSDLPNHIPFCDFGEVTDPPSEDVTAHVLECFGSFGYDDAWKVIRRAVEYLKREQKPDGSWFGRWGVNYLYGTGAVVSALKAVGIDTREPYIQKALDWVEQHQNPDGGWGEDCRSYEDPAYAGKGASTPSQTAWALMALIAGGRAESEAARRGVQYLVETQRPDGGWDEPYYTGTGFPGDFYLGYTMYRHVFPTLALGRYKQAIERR
The test can be described thus: Inhibitory activity against squalene hopene cyclase from Alicyclobacillus acidocaldarius.
For the compound `C=CCN(C)C/C=C/COc1ccc2c(-c3ccc(Br)cc3)noc2c1`, the IC50 amounted to 49 nM. The same measure, in the same setting: as for `C=CCN(C)C/C=C/COc1ccc(C(=O)c2ccc(Br)cc2)cc1`, the figure is 40 nM; as for `CN(C(=O)Oc1ccc(Cl)cc1)[C@H]1CC[C@H](c2ccc(C[N+]3([O-])CCCCC3)cc2)CC1`, 123 nM; as for `O=C(c1ccc(Cl)cc1)N1CCC(=Cc2ccc(C3=NCCO3)cc2)CC1`, 2800 nM. On the same count and under the same terms, as for `CN(CCCCCCOC1CCN(C(=O)c2ccc(F)cc2)CC1)C1CC1`, the figure is 760 nM.

Regarding `C=CCN(C)C/C=C/COc1ccc(-c2nsc3cc(Br)ccc23)cc1`, the IC50 is 130 nM.

Compound `C=CCN(C)C/C=C/COc1ccc2c(-c3ccc(Br)cc3)csc2c1` registered an IC50 of 75 nM.

As to `C=CCN(C)CCCCCCOc1ccc2c(-c3ccc(Br)cc3)noc2c1`, half-maximal inhibition (IC50) was put at 75 nM. Still for that read-out and setting: as for `C=CCN(C)CCCCCCOc1ccc2c(C)nn(C)c2c1`, the figure is 332 nM; as for `C=CCN(C)CCCCCCOc1ccc2c(c1)CON=C2c1ccc(Br)cc1`, 172 nM. Still for that read-out and setting: as for `C=CCN(C)CCCCCCOc1ccc(C(=O)c2ccc(Br)cc2)cc1`, the figure is 96 nM; as for `CN(CCCCCCOc1ccc(C(=O)c2ccc(Br)cc2)c(F)c1)C1CC1`, 38 nM; as for `CN(C[C@H]1C[C@@H]1COc1ccc(C(=O)c2ccc(Br)cc2)c(F)c1)C1CC1`, 50 nM.

Take `C=CCN(C)CCCCCCOC1CCN(C(=O)c2ccc(F)cc2)CC1`: the IC50 was determined as 1200 nM. On the same count and under the same terms, the figure for `CN(C[C@H]1C[C@@H]1COc1ccc(C(=O)c2ccc(Br)cc2)cc1)C1CC1` is 62 nM.

These data come from ChEMBL document CHEMBL1144925, “Binding structures and potencies of oxidosqualene cyclase inhibitors with the homologous squalene-hopene cyclase” (J Med Chem, 2003).
